Active and inactive are the calls of the source. The calls are words filed in the database; no cut-off is given here.
How the values were obtained:
Ileum [1] = assay: Induction of guinea pig ileum contraction; format: functional, tissue-based; settings: Cavia porcellus
[2] = Tremorgenic activity in ip dosed mouse; format: ADME, organism-based; settings: in vivo
Ileum [3] = assay: Induction of electrically-stimulated guinea pig ileum contraction at 10 ng/ml relative to control in presence of acetylcholine; format: functional, Cavia porcellus
Ileum [4] = assay: Induction of electrically-stimulated guinea pig ileum contraction at 100 ng/ml relative to control in presence of acetylcholine; format: functional, Cavia porcellus
Ileum [5] = assay: Induction of electrically-stimulated guinea pig ileum contraction at 1 ug/ml relative to control in presence of acetylcholine; format: functional, Cavia porcellus
Ileum [6] = assay: Induction of electrically-stimulated guinea pig ileum twitch contraction at 10 ng/ml relative to control in presence of hyoscine; format: functional, Cavia porcellus
Ileum [7] = assay: Induction of electrically-stimulated guinea pig ileum twitch contraction at 100 ng/ml relative to control in presence of hyoscine; format: functional, Cavia porcellus
Ileum [8] = assay: Induction of electrically-stimulated guinea pig ileum twitch contraction at 1 ug/ml relative to control in presence of hyoscine; format: functional, Cavia porcellus
Ileum [9] = assay: Induction of electrically-stimulated guinea pig ileum twitch contraction at 10 ng/ml; format: functional, tissue-based; settings: Cavia porcellus

| SMILES | Activity (Ileum [1]) | ED50 [2] | Activity (Ileum [3]) | Activity (Ileum [4]) | Activity (Ileum [5]) | Activity (Ileum [6]) | Activity (Ileum [7]) | Activity (Ileum [8]) | Activity (Ileum [9]) |
| --- | --- | --- | --- | --- | --- | --- | --- | --- | --- |
| CC(C)(O)[C@H]1O[C@H]2CC[C@@]3(C)[C@@](O)(CC[C@H]4Cc5c([nH]c6ccccc56)[C@@]43C)C2=CC1=O [PAXILLINE] | Dose-dependent effect | 25 mg/kg | 121% | 118% | 126% | 9% | 11% | 2% | – |
| COc1ccc2c3c4n(c2c1)[C@H](C=C(C)C)OOC(C)(C)C[C@@H]4N1C(=O)[C@@H]2CCCN2C(=O)[C@]1(O)[C@H]3O [VERRUCULOGEN] | Dose-dependent effect | 0.39 mg/kg | 127% | 123% | 109% | 7% | 11% | 14% | Active |
| C=C1Cc2ccc3[nH]c4c5c3c2[C@H]2[C@@H]1C[C@@H]2C(C)(C)O[C@H]5[C@@H]1CC[C@@]2(O)[C@@]35O[C@@H]3[C@@H](O)[C@@H](C(=C)C)O[C@H]5CC[C@]2(C)[C@@]41C [PENITREM B] | – | 5 mg/kg | 111% | 96% | 117% | 12% | 10% | 10% | – |
